Test results reported in the kinase profiling compilation of Christmann-Franck et al. (2016).

Key:
Experiment in all cases: KINOMEscan competition binding
Settings in all cases: compound 10.0 µM
[1] = test system: KIT (human), P10721 [V559D/V654A]
[2] = test system: PIK3CA (human), P42336 [C420R]
[3] = target: RPS6KA1 KD1 (human) (UniProt Q15418)
[4] = test system: KIT (human), P10721 [V559D/T670I]
[5] = target: EPHA1 (human) (UniProt P21709)
[6] = test system: FLT3 (human), P36888 [N841I]
[7] = test system: PIK3CA (human), P42336 [H1047Y]
[8] = target: IRAK3 (human) (UniProt Q9Y616)
[9] = target: CDK9 (human) (UniProt P50750)
[10] = target: MAP3K9 (human) (UniProt P80192)
[11] = target: CDKL2 (human) (UniProt Q92772)
[12] = target: PRKD1 (human) (UniProt Q15139)
[13] = target: LTK (human) (UniProt P29376)
[14] = target: CAMKK1 (human) (UniProt Q8N5S9)
[15] = target: ULK3 (human) (UniProt Q6PHR2)
[16] = target: MARK2 (human) (UniProt Q7KZI7)
[17] = target: RPS6KA1 KD2 (human) (UniProt Q15418)
[18] = target: RPS6KA5 KD2 (human) (UniProt O75582)
[19] = target: RIOK3 (human) (UniProt O14730)
[20] = target: STK11 (human) (UniProt Q15831)
[21] = target: MAK (human) (UniProt P20794)
[22] = target: CDK19 (human) (UniProt Q9BWU1)
[23] = target: MAPK4 (human) (UniProt P31152)
[24] = target: FLT1 (human) (UniProt P17948)
[25] = target: CDKL3 (human) (UniProt Q8IVW4)
[26] = target: TESK1 (human) (UniProt Q15569)
[27] = target: NTRK2 (human) (UniProt Q16620)
[28] = test system: FGFR3 (human), P22607 [G697C]
[29] = target: TGFBR2 (human) (UniProt P37173)
[30] = target: AURKA (human) (UniProt O14965)
[31] = target: FGFR2 (human) (UniProt P21802)
[32] = target: LIMK1 (human) (UniProt P53667)
[33] = test system: ABL1 (human), P00519 [E255K]
[34] = target: INSRR (human) (UniProt P14616)
[35] = target: NEK1 (human) (UniProt Q96PY6)
[36] = target: TEC (human) (UniProt P42680)
[37] = target: FGR (human) (UniProt P09769)
[38] = target: SIK2 (human) (UniProt Q9H0K1)
[39] = target: AURKB (human) (UniProt Q96GD4)
[40] = target: MAP4K1 (human) (UniProt Q92918)
[41] = target: IKBKB (human) (UniProt O14920)

Chain of TGFBR2 (human) (P37173 whole entry, looked up): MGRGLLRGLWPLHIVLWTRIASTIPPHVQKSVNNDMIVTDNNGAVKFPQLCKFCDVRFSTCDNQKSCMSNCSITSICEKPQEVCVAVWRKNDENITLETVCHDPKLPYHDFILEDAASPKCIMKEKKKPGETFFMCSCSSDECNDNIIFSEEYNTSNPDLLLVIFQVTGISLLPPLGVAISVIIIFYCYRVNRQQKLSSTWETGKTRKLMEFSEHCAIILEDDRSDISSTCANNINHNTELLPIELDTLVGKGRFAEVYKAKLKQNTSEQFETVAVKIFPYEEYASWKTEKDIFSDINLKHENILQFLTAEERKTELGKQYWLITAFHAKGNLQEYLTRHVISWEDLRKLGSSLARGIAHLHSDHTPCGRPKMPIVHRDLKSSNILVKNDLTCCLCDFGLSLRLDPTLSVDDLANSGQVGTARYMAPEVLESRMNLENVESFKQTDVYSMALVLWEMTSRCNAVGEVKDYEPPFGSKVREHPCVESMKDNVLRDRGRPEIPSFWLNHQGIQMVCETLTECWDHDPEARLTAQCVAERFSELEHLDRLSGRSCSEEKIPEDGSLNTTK
Chain of PIK3CA (human), P42336 [C420R] (P42336 whole entry C420R, looked up): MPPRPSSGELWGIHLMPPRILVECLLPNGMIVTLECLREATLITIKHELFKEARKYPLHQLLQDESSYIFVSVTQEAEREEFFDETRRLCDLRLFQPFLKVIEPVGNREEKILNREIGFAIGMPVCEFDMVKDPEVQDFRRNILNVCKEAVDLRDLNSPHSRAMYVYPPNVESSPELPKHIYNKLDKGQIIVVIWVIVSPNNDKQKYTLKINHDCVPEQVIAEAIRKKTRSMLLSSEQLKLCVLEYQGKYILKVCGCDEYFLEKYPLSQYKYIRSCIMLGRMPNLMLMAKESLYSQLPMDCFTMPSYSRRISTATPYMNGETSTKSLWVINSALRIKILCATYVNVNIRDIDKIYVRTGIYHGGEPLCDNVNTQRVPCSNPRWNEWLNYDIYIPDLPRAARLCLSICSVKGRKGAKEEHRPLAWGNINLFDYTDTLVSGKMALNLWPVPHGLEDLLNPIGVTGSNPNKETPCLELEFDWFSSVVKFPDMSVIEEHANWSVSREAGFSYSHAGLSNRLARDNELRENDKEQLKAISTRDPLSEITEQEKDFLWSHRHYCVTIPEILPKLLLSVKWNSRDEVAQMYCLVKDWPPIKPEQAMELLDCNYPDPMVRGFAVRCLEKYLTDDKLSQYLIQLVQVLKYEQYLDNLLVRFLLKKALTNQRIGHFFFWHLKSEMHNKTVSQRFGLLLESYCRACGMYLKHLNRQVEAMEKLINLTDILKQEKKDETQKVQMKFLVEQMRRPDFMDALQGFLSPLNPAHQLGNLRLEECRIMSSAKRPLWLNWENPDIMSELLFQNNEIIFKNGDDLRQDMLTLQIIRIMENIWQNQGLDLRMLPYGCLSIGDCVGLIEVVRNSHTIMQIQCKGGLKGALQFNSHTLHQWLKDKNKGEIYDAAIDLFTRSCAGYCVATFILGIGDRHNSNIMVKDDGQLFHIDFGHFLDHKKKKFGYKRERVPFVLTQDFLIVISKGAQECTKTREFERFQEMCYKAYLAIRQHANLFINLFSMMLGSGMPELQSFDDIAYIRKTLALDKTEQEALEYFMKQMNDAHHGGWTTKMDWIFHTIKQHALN
Chain of NTRK2 (human) (Q16620 whole entry, looked up): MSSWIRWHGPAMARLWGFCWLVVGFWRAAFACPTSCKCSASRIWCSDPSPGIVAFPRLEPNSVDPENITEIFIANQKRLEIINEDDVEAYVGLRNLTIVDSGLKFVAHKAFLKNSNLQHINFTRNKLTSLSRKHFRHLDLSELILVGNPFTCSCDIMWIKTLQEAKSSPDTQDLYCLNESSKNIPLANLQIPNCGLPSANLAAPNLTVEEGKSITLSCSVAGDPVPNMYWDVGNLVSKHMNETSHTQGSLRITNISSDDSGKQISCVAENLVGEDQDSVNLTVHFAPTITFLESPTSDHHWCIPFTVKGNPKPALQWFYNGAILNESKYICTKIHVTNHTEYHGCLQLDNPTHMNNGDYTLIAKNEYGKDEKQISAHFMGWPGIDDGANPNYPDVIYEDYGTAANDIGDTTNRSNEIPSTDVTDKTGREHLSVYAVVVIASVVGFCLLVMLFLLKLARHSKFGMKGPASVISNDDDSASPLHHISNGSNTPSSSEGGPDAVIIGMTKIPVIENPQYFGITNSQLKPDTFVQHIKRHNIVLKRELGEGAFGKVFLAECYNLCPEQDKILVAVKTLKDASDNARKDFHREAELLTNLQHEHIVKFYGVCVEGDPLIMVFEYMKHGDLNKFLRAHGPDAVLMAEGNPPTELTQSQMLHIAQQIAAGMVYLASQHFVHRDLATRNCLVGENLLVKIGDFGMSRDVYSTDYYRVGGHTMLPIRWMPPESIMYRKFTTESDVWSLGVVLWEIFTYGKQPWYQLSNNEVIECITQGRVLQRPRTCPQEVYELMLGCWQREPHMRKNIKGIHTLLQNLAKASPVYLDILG
Chain of RPS6KA1 KD2 (human) (Q15418 whole entry, looked up): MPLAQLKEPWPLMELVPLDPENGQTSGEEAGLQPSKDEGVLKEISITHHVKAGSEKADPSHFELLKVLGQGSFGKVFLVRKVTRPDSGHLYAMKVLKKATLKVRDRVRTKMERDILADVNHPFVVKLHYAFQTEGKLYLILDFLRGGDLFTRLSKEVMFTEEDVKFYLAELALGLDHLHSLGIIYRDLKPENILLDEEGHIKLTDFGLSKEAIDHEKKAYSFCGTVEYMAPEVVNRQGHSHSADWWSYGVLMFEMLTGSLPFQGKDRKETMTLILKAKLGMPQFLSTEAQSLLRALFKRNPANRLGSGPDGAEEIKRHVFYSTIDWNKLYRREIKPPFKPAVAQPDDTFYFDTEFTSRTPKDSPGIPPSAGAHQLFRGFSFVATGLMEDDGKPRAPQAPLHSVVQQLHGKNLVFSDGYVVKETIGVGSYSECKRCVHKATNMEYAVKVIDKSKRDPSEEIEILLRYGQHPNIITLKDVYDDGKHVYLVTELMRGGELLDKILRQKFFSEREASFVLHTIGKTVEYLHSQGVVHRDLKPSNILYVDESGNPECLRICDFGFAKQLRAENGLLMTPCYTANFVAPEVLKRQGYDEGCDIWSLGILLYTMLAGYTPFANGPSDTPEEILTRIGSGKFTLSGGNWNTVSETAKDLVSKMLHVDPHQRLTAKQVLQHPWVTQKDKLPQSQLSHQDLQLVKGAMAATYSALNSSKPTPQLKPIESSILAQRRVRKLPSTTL
Chain of RPS6KA1 KD1 (human) (Q15418 whole entry, looked up): as above
Chain of FGR (human) (P09769 whole entry, looked up): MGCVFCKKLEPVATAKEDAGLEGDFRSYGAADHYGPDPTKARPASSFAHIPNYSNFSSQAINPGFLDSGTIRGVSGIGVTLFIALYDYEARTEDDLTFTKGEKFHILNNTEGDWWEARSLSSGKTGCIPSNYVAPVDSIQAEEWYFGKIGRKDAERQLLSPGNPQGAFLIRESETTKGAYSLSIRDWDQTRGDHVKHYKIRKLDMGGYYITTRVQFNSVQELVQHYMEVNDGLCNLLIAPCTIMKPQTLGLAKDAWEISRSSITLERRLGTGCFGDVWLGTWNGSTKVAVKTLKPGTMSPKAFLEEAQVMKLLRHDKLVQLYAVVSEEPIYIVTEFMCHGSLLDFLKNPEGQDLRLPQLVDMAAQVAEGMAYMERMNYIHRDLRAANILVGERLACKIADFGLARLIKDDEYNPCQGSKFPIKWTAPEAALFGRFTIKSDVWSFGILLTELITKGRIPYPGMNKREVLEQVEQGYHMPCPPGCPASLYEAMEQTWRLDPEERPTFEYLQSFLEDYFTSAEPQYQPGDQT
Chain of ULK3 (human) (Q6PHR2 whole entry, looked up): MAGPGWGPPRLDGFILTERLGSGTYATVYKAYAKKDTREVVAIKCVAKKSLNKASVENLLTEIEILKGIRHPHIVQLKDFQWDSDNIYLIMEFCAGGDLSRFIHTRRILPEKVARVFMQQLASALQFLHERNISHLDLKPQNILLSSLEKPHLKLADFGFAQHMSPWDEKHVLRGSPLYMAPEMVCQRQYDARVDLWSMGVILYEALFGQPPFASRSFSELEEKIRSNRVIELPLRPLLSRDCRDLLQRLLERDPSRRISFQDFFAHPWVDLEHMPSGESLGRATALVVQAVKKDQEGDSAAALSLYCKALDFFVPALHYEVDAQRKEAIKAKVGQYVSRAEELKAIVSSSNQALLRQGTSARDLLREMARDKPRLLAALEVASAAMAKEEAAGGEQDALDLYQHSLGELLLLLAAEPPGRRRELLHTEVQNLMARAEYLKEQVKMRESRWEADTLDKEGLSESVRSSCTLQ
Chain of IRAK3 (human) (Q9Y616 whole entry, looked up): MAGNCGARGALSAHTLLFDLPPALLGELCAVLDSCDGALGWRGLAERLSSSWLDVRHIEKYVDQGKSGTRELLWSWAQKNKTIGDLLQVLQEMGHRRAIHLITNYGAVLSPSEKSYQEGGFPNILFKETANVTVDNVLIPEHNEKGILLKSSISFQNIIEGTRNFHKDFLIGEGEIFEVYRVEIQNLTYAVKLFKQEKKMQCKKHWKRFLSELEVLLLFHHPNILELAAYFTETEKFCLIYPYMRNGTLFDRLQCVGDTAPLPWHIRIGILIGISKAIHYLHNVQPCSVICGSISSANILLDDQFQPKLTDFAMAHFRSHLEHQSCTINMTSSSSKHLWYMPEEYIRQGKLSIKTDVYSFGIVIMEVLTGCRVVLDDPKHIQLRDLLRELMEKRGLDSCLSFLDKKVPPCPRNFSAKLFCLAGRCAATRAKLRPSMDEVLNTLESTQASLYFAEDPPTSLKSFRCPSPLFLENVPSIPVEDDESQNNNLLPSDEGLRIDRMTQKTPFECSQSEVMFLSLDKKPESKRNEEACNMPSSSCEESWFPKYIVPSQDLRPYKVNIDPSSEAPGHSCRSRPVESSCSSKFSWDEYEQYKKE
Chain of PIK3CA (human), P42336 [H1047Y] (P42336 whole entry H1047Y, looked up): as the sequence (P42336 whole entry C420R, looked up) above, with R420C, H1047Y counted along it

Question: For `Cn1cc(C2=C(c3ccc(Cl)cc3Cl)C(=O)NC2=O)c2ccccc21`, which kinase still bound, per cent of control [1] is on record?
Answer: 83%

Question: And the kinase still bound, per cent of control [2]?
Answer: 86%

Question: What about the kinase still bound, per cent of control [3] of the same compound?
Answer: 58%

Question: And the kinase still bound, per cent of control [4]?
Answer: 92%

Question: And the kinase still bound, per cent of control [5]?
Answer: 100%

Question: What about the kinase still bound, per cent of control [6] of the same compound?
Answer: 47%

Question: What about the kinase still bound, per cent of control [7] of the same compound?
Answer: 100%

Question: What about the kinase still bound, per cent of control [8] of the same compound?
Answer: 100%

Question: And the kinase still bound, per cent of control [9]?
Answer: 92%

Question: And the kinase still bound, per cent of control [10]?
Answer: 89%

Question: What about the kinase still bound, per cent of control [11] of the same compound?
Answer: 87%

Question: What about the kinase still bound, per cent of control [12] of the same compound?
Answer: 100%

Question: What about the kinase still bound, per cent of control [13] of the same compound?
Answer: 100%

Question: And the kinase still bound, per cent of control [14]?
Answer: 68%

Question: What about the kinase still bound, per cent of control [15] of the same compound?
Answer: 100%

Question: What about the kinase still bound, per cent of control [16] of the same compound?
Answer: 78%

Question: And the kinase still bound, per cent of control [17]?
Answer: 53%

Question: And the kinase still bound, per cent of control [18]?
Answer: 100%

Question: What about the kinase still bound, per cent of control [19] of the same compound?
Answer: 65%

Question: What about the kinase still bound, per cent of control [20] of the same compound?
Answer: 60%

Question: And the kinase still bound, per cent of control [21]?
Answer: 20%

Question: What about the kinase still bound, per cent of control [22] of the same compound?
Answer: 100%

Question: And the kinase still bound, per cent of control [23]?
Answer: 100%

Question: And the kinase still bound, per cent of control [24]?
Answer: 100%

Question: What about the kinase still bound, per cent of control [25] of the same compound?
Answer: 100%

Question: And the kinase still bound, per cent of control [26]?
Answer: 100%

Question: And the kinase still bound, per cent of control [27]?
Answer: 70%

Question: And the kinase still bound, per cent of control [28]?
Answer: 100%

Question: What about the kinase still bound, per cent of control [29] of the same compound?
Answer: 100%

Question: What about the kinase still bound, per cent of control [30] of the same compound?
Answer: 100%

Question: What about the kinase still bound, per cent of control [31] of the same compound?
Answer: 100%

Question: What about the kinase still bound, per cent of control [32] of the same compound?
Answer: 93%

Question: And the kinase still bound, per cent of control [33]?
Answer: 100%

Question: And the kinase still bound, per cent of control [34]?
Answer: 72%

Question: And the kinase still bound, per cent of control [35]?
Answer: 86%

Question: What about the kinase still bound, per cent of control [36] of the same compound?
Answer: 84%

Question: What about the kinase still bound, per cent of control [37] of the same compound?
Answer: 100%

Question: What about the kinase still bound, per cent of control [38] of the same compound?
Answer: 89%

Question: What about the kinase still bound, per cent of control [39] of the same compound?
Answer: 96%

Question: And the kinase still bound, per cent of control [40]?
Answer: 62%

Question: What about the kinase still bound, per cent of control [41] of the same compound?
Answer: 83%
